# Results reported in patent US12516293B2, “Reagents and methods with Wnt agonists and bioactive lipids for generating and expanding cardiomyocytes” (The Board of Trustees of the Leland Stanford Junior …, priority 2018, dated 2026).
# Legend:
# Type in all cases: cell-based, human
# hiPSC-CMs = experiment: ki67/pHH3 proliferation and binucleation of hiPSC-CMs (immunofluorescence)
# Procedure: Immunohistochemistry was performed with the incubation of primary antibodies overnight followed by 2 hours of incubation with various Alexa fluorescence conjugated secondary antibodies. Images were made with confocal (Zeiss LSM 710) or regular immunofluorescence microscopy (Leica DM IL LED). Primaries used in this study were cardiac troponin T (MS-295, Fisher), Ki67 (ab15580, Abcam), pHH3 (#9701, Cell Signaling), aurora B (ab2254, Abcam), alpha sarcomeric actinin ([…], Sigma-Aldrich), MLC2V (ab48003, Abcam), phospo AKT […] (#9275, Cell Signaling). […] To examine this, the percentage was determined of troponin T (TnT) positive hiPSC-CMs that express the cell cycle marker ki67 or the mitosis marker phospho-histone H3 (pHH3) at each passage after treatment with CHIR or DMSO (CTR) (FIG. 2A-C). […] The short-term (24 hrs) changes were assessed in proliferation rate of day 12 hiPSC-CMs (P0) after treatment with CHIR-, CTR-, or C59, a specific inhibitor of Wnt signaling (FIG. 2I-J).
# hiPSCs = experiment: hiPSC morphology, cell number and marker expression; settings: 48-hour treatment of hiPSCs, immunostaining and qPCR
# Source text: The changes in gene expression was validated after treatment with bioactive lipids or CHIR from the microarray studies with immunostaining and quantitative PCR analysis (FIG. 17D-E).
# TCF/LEF = experiment: TOPFlash TCF/LEF luciferase reporter in day 30 hiPSC-CMs; settings: day 30 cardiomyocytes, 2-hour treatment
# Procedure: […] and day 30 hiPSC-CMs were replated in 96-well plates and cultured for 2-3 days before transfection with Lipofectamine (Invitrogen) and TOPFlash (TCF/LEF) luciferase Wnt signaling reporter plasmid (M50, Addgene) at 100 ng/well. After 48 hours, media was changed, and cells were subjected to different treatments for 2 hours before lysis and luciferase (Promega) luminescence was measured with a standard luminescence plate reader. To determine the mechanism through which S1P/LPA regulate cell cycle activity in hiPSC-CMs, it was evaluated whether S1P and LPA treatment can directly stimulate Wnt/β-catenin signaling in day 30 cardiomyocytes using the TOPFlash (TCF/LEF-luciferase) reporter.
smiles,measurement,setting,value
Cc1c[nH]c(-c2cnc(NCCNc3ccc(C#N)cn3)nc2-c2ccc(Cl)cc2Cl)n1 [CHIR99021],"extension of window of proliferation (ki67, pHH3)",hiPSC-CMs; CHIR vs CTR at each passage,up to 5 passages
same,binucleation,hiPSC-CMs; compared with CTR or C59 treated cells,less binucleation
same,ki67 expression / proliferation rate,"hiPSC-CMs; day 12 hiPSC-CMs (P0), 24 hrs treatment",significant difference in ki67 expression
same,Brachyury T (Bry T) expression,hiPSCs,increase both VIM and Brachyury T (Bry T) expression
same,VIM expression,hiPSCs,increase both VIM and Brachyury T (Bry T) expression
same,TCF/LEF-luciferase activity (TOPFlash),TCF/LEF,activated
